According to ChEMBL document CHEMBL3244212, “Relationship of molecular structure to in vivo scintigraphic distribution of carbon-11-labeled compounds. 4. Carbon-11-labeled mandelonitriles, Mandelic acids, and their esters” (J Med Chem, 1978):

Assays:
Type in all cases: ADME, organism-based, Canis lupus familiaris
Canis familiaris [1] = assay: Biodistribution in iv dosed dog left lateral whole body measured after 4 mins by scintigraphic analysis; settings: in vivo
[2] = Biodistribution in iv dosed dog urinary bladder measured after 21 to 51 mins by scintigraphic analysis; settings: in vivo
[3] = Biodistribution in iv dosed dog left lateral head/neck measured after 35 mins by scintigraphic analysis; settings: in vivo
[4] = Biodistribution in iv dosed dog ventral abdomen measured after 30 mins by scintigraphic analysis; settings: in vivo, 0.5 h
[5] = Biodistribution in iv dosed dog left lateral thorax measured after 27 mins by scintigraphic analysis; settings: in vivo, 0.45 h
Canis familiaris [6] = assay: Biodistribution in iv dosed dog lung after 3 mins by scintigraphic analysis; settings: in vivo, 0.05 h
Nucleic Acid [7] = assay: Ratio of drug level in temporal muscle to mesenteric nodes in iv dosed dog measured after 40 mins; settings: in vivo
[8] = Ratio of drug level in temporal muscle to urine in iv dosed dog measured after 34 mins; settings: in vivo
[9] = Ratio of drug level in temporal muscle to blood in iv dosed dog measured after 34 mins
Nucleic Acid [10] = assay: Ratio of drug level in temporal muscle to heart in iv dosed dog measured after 40 mins; settings: in vivo
Nucleic Acid [11] = assay: Ratio of drug level in temporal muscle to stomach in iv dosed dog measured after 40 mins; settings: in vivo
Nucleic Acid [12] = assay: Ratio of drug level in temporal muscle to brain in iv dosed dog measured after 40 mins; settings: in vivo
Nucleic Acid [13] = assay: Ratio of drug level in temporal muscle to liver in iv dosed dog measured after 40 mins; settings: in vivo
Nucleic Acid [14] = assay: Ratio of drug level in temporal muscle to brain in iv dosed dog measured after 34 mins; settings: in vivo
Nucleic Acid [15] = assay: Ratio of drug level in temporal muscle to mesenteric fat in iv dosed dog measured after 40 mins; settings: in vivo
Nucleic Acid [16] = assay: Ratio of drug level in temporal muscle to kidney in iv dosed dog measured after 34 mins; settings: in vivo
[17] = Ratio of drug level in temporal muscle to bile in iv dosed dog measured after 34 mins; settings: in vivo
[18] = Ratio of drug level in temporal muscle to bile in iv dosed dog measured after 40 mins; settings: in vivo
Nucleic Acid [19] = assay: Ratio of drug level in temporal muscle to lung in iv dosed dog measured after 34 mins; settings: in vivo
Nucleic Acid [20] = assay: Ratio of drug level in temporal muscle to stomach in iv dosed dog measured after 34 mins; settings: in vivo
Nucleic Acid [21] = assay: Ratio of drug level in temporal muscle to liver in iv dosed dog measured after 34 mins; settings: in vivo
Nucleic Acid [22] = assay: Ratio of drug level in temporal muscle to pancreas in iv dosed dog measured after 40 mins; settings: in vivo
[23] = Ratio of drug level in temporal muscle to urine in iv dosed dog measured after 40 mins; settings: in vivo
Nucleic Acid [24] = assay: Ratio of drug level in temporal muscle to spleen in iv dosed dog measured after 40 mins; settings: in vivo
Nucleic Acid [25] = assay: Ratio of drug level in temporal muscle to heart in iv dosed dog measured after 34 mins; settings: in vivo
Nucleic Acid [26] = assay: Ratio of drug level in temporal muscle to kidney in iv dosed dog measured after 40 mins; settings: in vivo
Nucleic Acid [27] = assay: Ratio of drug level in temporal muscle to cerebrospinal fluid in iv dosed dog measured after 34 mins; settings: in vivo
Nucleic Acid [28] = assay: Ratio of drug level in temporal muscle to lung in iv dosed dog measured after 40 mins; settings: in vivo
Nucleic Acid [29] = assay: Ratio of drug level in temporal muscle to adrenal in iv dosed dog measured after 40 mins; settings: in vivo
Nucleic Acid [30] = assay: Ratio of drug level in temporal muscle to pancreas in iv dosed dog measured after 34 mins; settings: in vivo
Nucleic Acid [31] = assay: Ratio of drug level in temporal muscle to spleen in iv dosed dog measured after 34 mins; settings: in vivo
Liver = assay: Biodistribution in iv dosed dog left lateral liver measured after 18 to 80 mins by scintigraphic analysis; settings: in vivo
[32] = Biodistribution in iv dosed dog left lateral heart measured after 18 to 80 mins by scintigraphic analysis; settings: in vivo
[33] = Biodistribution in iv dosed dog blood measured after 3 mins by scintigraphic analysis; settings: in vivo, 0.05 h

## Cc1cccc(C(O)[11C](=O)O)c1 (configuration not stated)
Canis familiaris [1]
  Drug uptake: Active
[2]
  Drug uptake: Active

## O=[11C](O)C(O)c1ccccc1 (configuration not stated)
Canis familiaris [1]
  Drug uptake: Active
[2]
  Drug uptake: Active

## N#[11C]C(O)c1ccc(O)c(O)c1 (configuration not stated)
Canis familiaris [1]
  Drug uptake: Active
[3]
  Drug uptake: Active
[4]
  Drug uptake: Active
[5]
  Drug uptake: Active

## O=[11C](OCc1ccccc1)C(O)c1ccccc1 (configuration not stated)
Canis familiaris [6]
  Drug uptake: Active

## O=[11C](O)C(O)c1ccc(Cl)cc1 (configuration not stated)
Canis familiaris [1]
  Drug uptake: Active
[2]
  Drug uptake: Active

## CCO[11C](=O)C(O)c1ccccc1 (configuration not stated)
Canis familiaris [6]
  Drug uptake: Active

## O=[11C](O)C(O)c1ccccc1Cl (configuration not stated)
Canis familiaris [1]
  Drug uptake: Active
Nucleic Acid [7]
  Ratio: 2.28
[8]
  Ratio: 36.77
[9]
  Kp at 34 min: 13.8
Nucleic Acid [10]
  Ratio: 1.06
Nucleic Acid [11]
  Ratio: 1.17
Nucleic Acid [12]
  Ratio: 0.16
Nucleic Acid [13]
  Ratio: 1.79
Nucleic Acid [14]
  Ratio: 0.23
Nucleic Acid [15]
  Ratio: 0.47
Nucleic Acid [16]
  Ratio: 4.46
[17]
  Ratio: 1.23
[18]
  Ratio: 0.85
Nucleic Acid [19]
  Ratio: 1.08
Nucleic Acid [20]
  Ratio: 1.35
Nucleic Acid [21]
  Ratio: 1.38
Nucleic Acid [22]
  Ratio: 1.18
[23]
  Ratio: 295
Nucleic Acid [24]
  Ratio: 1.46
Nucleic Acid [25]
  Ratio: 1.15
Nucleic Acid [26]
  Ratio: 6.26
[2]
  Drug uptake: Active
Nucleic Acid [27]
  Ratio: 2
Nucleic Acid [28]
  Ratio: 1.6
Nucleic Acid [29]
  Ratio: 3.73
Nucleic Acid [30]
  Ratio: 4.54
Nucleic Acid [31]
  Ratio: 1.08

## COc1ccc(C(O)[11C]#N)cc1 (configuration not stated)
Liver
  Drug uptake: Active
[32]
  Drug uptake: Active
[33]
  Drug uptake: Active
